The structures appear in SMILES notation. pIC50: −log10 of the molar value.

For the test, the target named is Nitric oxide synthase, inducible (Homo sapiens, UniProt P35228). The test can be described thus: Inhibition of inducible nitric oxide synthase in activated macrophages.
Chain of Nitric oxide synthase, inducible (P35228 whole entry): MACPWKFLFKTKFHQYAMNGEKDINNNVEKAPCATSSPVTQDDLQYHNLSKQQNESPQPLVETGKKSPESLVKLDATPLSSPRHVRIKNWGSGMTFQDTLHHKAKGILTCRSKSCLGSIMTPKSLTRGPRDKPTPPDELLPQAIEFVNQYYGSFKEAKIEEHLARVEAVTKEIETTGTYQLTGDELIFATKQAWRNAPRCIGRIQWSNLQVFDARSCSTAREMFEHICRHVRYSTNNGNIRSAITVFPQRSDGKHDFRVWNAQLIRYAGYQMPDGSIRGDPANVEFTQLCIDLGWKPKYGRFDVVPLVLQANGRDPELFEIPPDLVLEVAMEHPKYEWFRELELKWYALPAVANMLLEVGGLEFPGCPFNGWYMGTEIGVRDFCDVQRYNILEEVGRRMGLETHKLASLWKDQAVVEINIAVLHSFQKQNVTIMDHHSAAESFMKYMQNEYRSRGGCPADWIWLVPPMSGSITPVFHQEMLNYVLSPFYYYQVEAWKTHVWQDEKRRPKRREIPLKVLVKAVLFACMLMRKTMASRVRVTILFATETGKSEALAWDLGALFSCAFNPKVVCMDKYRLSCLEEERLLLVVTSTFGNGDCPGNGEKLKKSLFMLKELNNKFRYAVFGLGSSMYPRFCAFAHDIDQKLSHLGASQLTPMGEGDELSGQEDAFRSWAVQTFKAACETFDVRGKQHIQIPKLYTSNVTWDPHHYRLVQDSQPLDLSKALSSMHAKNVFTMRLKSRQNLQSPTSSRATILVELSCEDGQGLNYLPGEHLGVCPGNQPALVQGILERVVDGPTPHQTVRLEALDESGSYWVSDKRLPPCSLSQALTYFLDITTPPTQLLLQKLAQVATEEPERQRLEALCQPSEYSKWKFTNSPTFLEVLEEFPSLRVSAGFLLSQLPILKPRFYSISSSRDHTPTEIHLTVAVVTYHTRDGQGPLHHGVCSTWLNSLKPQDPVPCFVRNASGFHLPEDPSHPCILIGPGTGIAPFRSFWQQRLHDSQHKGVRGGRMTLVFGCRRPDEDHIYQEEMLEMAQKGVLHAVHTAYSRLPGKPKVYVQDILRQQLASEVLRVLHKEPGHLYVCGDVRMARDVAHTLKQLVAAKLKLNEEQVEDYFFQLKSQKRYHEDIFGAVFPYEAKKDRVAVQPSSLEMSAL

For orientation: pIC50 means the IC50 on a negative log10 scale, so that one unit is a factor of ten. Low values mean a high IC50, high ones a low IC50. `CC1(C)CC[C@]2(C(=O)O)CC[C@]3(C)C(=CC[C@@H]4[C@@]5(C)CC[C@H](O)C(C)(C)[C@@H]5CC[C@]43C)[C@@H]2C1` [Oleanolic acid (OA)(Compound 1)] gave a negative-log IC50 (pIC50) of less than 4.40.

`CC1(C)CC[C@]2(C(=O)O)CC[C@]3(C)C(=CCC4[C@@]5(C)C=C(C#N)C(=O)C(C)(C)C5CC[C@]43C)C2C1` (stereo partly drawn) [(4aS,6aS,6bR,12aR)-11-Cyano-2,2,6a,6b,9,9,12a-heptamethyl-10-oxo-1,3,4,5,6,6a,6b,7,8,8a,9,10,12a,12b,13,14b-hexadecahydro-2H-picene-4a-carboxylic acid] showed a negative-log IC50 (pIC50) of 6.22.

As to `CC1(C)CC[C@]2(C(=O)O)CC[C@]3(C)C(=CCC4[C@@]5(C)C=CC(=O)C(C)(C)C5CC[C@]43C)C2C1` (stereo partly drawn) [(4aS,6aS,6bR,12aR)-2,2,6a,6b,9,9,12a-Heptamethyl-10-oxo-1,3,4,5,6,6a,6b,7,8,8a,9,10,12a,12b,13,14b-hexadecahydro-2H-picene-4a-carboxylic acid], the negative-log IC50 (pIC50) is 5.25.

On to `CC1(C)CC[C@]2(C(=O)O)CC[C@]3(C)C(=CC[C@@H]4[C@@]5(C)CCC(=O)C(C)(C)[C@@H]5CC[C@]43C)[C@@H]2C1` [Oleanonic Acid], for which the negative-log IC50 (pIC50) is 4.43.

On to `CC1(C)CC[C@]2(C(=O)O)CC[C@]3(C)C(C(=O)CC4[C@@]5(C)C=CC(=O)C(C)(C)C5CC[C@]43C)C2C1` (stereo partly drawn) [(4aS,6aR,6bR,12aR)-2,2,6a,6b,9,9,12a-Heptamethyl-10,14-dioxo-1,3,4,5,6,6a,6b,7,8,8a,9,10,12a,12b,13,14,14a,14b-octadecahydro-2H-picene-4a-carboxylic acid], for which the pIC50 was 5.48.

The compound `CC1(C)CC[C@]2(C(=O)O)CC[C@]3(C)C(=CC(=O)C4[C@@]5(C)C=C(C#N)C(=O)C(C)(C)C5CC[C@]43C)C2C1` (stereo partly drawn) [(4aS,6aS,6bR,12aS)-11-Cyano-2,2,6a,6b,9,9,12a-heptamethyl-10,13-dioxo-1,3,4,5,6,6a,6b,7,8,8a,9,10,12a,12b,13,14b-hexadecahydro-2H-picene-4a-carboxylic acid] gave a pIC50 of 7.40.
